According to patent US8268821B2, “Methods and compositions” (priority 2003, dated 2012):
Marks after values point to notes of the source that are not given here.

Test system: cancer-related neuropathic pain
Experiment: Open label dose escalation study of flupirtine, case studies JE and RM
Conditions: flupirtine 100 mg qid; for SCORE RELATIONSHIPS / SCORE MOOD / SCORE ENJOYMENT / SCORE SLEEP / SCORE WALKING / SCORE GENERAL ACTIVITY / SCORE TOTAL ACTIVITY: pain interference 1-10; for SCORE RELATIONSHIPS / SCORE NAUSEA / WHO PERFORMANCE STATUS: day 1 baseline 3; for SCORE MOOD / SCORE POOR APPETITE / SCORE UN[…] GAIT / PAIN SCORE RIGHT NOW: day 1 baseline 4; for SCORE ENJOYMENT / SCORE SLEEP: day 1 baseline 6; for SCORE WALKING: day 1 baseline 7; for SCORE GENERAL ACTIVITY / SCORE TOTAL ACTIVITY / AVERAGE PAIN LAST 24 HOURS: day 1 baseline 8; for SCORE CONSTIPATION / SCORE INDIGESTION / SCORE POOR CONCENTRATION / SCORE DROWSINESS / SCORE NAUSEA / SCORE POOR APPETITE / SCORE UN[…] GAIT: scale 1-4; for SCORE CONSTIPATION / SCORE INDIGESTION / SCORE POOR CONCENTRATION: day 1 baseline 1; for SCORE DROWSINESS: day 1 baseline 2; for LEAST PAIN LAST 24 HRS / PAIN SCORE RIGHT NOW / AVERAGE PAIN LAST 24 HOURS / WORST PAIN SCORE LAST 24 HOURS: scale to 10; for LEAST PAIN LAST 24 HRS / electric pain score / freezing pain score / numbness score / score for increased pain due to touch / score for increased pain due to weather changes / squeezing pain score: day 1 baseline 0; for WORST PAIN SCORE LAST 24 HOURS / PERCENTAGE PAIN RELIEF LAST 24 HOURS: day 1 baseline 10; for WHO PERFORMANCE STATUS: 0=fully active, 4=completely disabled; for neuropathic discriminant function score: >0 = neuropathic, day 1 baseline 0.262; for score for overly sensitive to touch / tingling pain score: day 1 baseline 20; for burning pain score / overwhelming pain score: day 1 baseline 90; for for shooting pain score / unpleasant pain score: day 1 baseline 100

Question: How did the “SCORE RELATIONSHIPS” value (RM day 5) turn out when `CCOC(=O)Nc1ccc(NCc2ccc(F)cc2)nc1N` [flupirtine] was run?
Answer: 3

Question: What about the “SCORE MOOD” value (RM day 5) of the same compound?
Answer: 3

Question: What about the “SCORE ENJOYMENT” value (RM day 5) of the same compound?
Answer: 6

Question: And the “SCORE SLEEP” value (RM day 5)?
Answer: 6

Question: What about the “SCORE WALKING” value (RM day 5) of the same compound?
Answer: 5

Question: What about the “SCORE GENERAL ACTIVITY” value (RM day 5) of the same compound?
Answer: 6

Question: And the “SCORE TOTAL ACTIVITY” value (RM day 5)?
Answer: 6

Question: What about the “SCORE CONSTIPATION” value (RM day 5) of the same compound?
Answer: 2

Question: What about the “SCORE INDIGESTION” value (RM day 5) of the same compound?
Answer: 1

Question: And the “SCORE POOR CONCENTRATION” value (RM day 5)?
Answer: 2

Question: And the “SCORE DROWSINESS” value (RM day 5)?
Answer: 1

Question: What about the “SCORE NAUSEA” value (RM day 5) of the same compound?
Answer: 1

Question: What about the “SCORE POOR APPETITE” value (RM day 5) of the same compound?
Answer: 2

Question: And the “SCORE UN[…] GAIT” value (RM day 5)?
Answer: 4

Question: And the “LEAST PAIN LAST 24 HRS” value (RM day 5)?
Answer: 2

Question: And the “PAIN SCORE RIGHT NOW” value (RM day 5)?
Answer: 5

Question: And the “AVERAGE PAIN LAST 24 HOURS” value (RM day 5)?
Answer: 8

Question: And the “WORST PAIN SCORE LAST 24 HOURS” value (RM day 5)?
Answer: 9

Question: What about the “WHO PERFORMANCE STATUS” value (RM day 6) of the same compound?
Answer: 3

Question: What about the “neuropathic discriminant function score” value (RM day 6) of the same compound?
Answer: −1.168

Question: What about the electric pain score (RM day 6) of the same compound?
Answer: 0

Question: What about the freezing pain score (RM day 6) of the same compound?
Answer: 0

Question: What about the numbness score (RM day 6) of the same compound?
Answer: 0

Question: And the “score for increased pain due to touch” value (RM day 6)?
Answer: 0

Question: What about the “score for increased pain due to weather changes” value (RM day 6) of the same compound?
Answer: 0

Question: And the squeezing pain score (RM day 6)?
Answer: 0

Question: What about the “PERCENTAGE PAIN RELIEF LAST 24 HOURS” value (RM day 6) of the same compound?
Answer: 50%

Question: What about the “score for overly sensitive to touch” value (RM day 6) of the same compound?
Answer: 0

Question: What about the tingling pain score (RM day 6) of the same compound?
Answer: 0

Question: And the burning pain score (RM day 6)?
Answer: 0

Question: What about the overwhelming pain score (RM day 6) of the same compound?
Answer: 40

Question: And the “for shooting pain score” value (RM day 6)?
Answer: 0

Question: What about the unpleasant pain score (RM day 6) of the same compound?
Answer: 60

Question: What about the “SCORE RELATIONSHIPS” value (RM day 6) of the same compound?
Answer: 3

Question: What about the “SCORE MOOD” value (RM day 6) of the same compound?
Answer: 4

Question: What about the “SCORE ENJOYMENT” value (RM day 6) of the same compound?
Answer: 6

Question: What about the “SCORE SLEEP” value (RM day 6) of the same compound?
Answer: 4

Question: What about the “SCORE WALKING” value (RM day 6) of the same compound?
Answer: 6

Question: And the “SCORE GENERAL ACTIVITY” value (RM day 6)?
Answer: 6

Question: And the “SCORE TOTAL ACTIVITY” value (RM day 6)?
Answer: 6

Question: What about the “SCORE CONSTIPATION” value (RM day 6) of the same compound?
Answer: 2

Question: And the “SCORE INDIGESTION” value (RM day 6)?
Answer: 1

Question: What about the “SCORE POOR CONCENTRATION” value (RM day 6) of the same compound?
Answer: 2

Question: What about the “SCORE DROWSINESS” value (RM day 6) of the same compound?
Answer: 1

Question: And the “SCORE NAUSEA” value (RM day 6)?
Answer: 2

Question: What about the “SCORE POOR APPETITE” value (RM day 6) of the same compound?
Answer: 2

Question: What about the “SCORE UN[…] GAIT” value (RM day 6) of the same compound?
Answer: 4

Question: What about the “LEAST PAIN LAST 24 HRS” value (RM day 6) of the same compound?
Answer: 2

Question: What about the “PAIN SCORE RIGHT NOW” value (RM day 6) of the same compound?
Answer: 6

Question: What about the “AVERAGE PAIN LAST 24 HOURS” value (RM day 6) of the same compound?
Answer: 4

Question: And the “WORST PAIN SCORE LAST 24 HOURS” value (RM day 6)?
Answer: 7

Question: What about the “WHO PERFORMANCE STATUS” value (RM day 7) of the same compound?
Answer: 3

Question: What about the “neuropathic discriminant function score” value (RM day 7) of the same compound?
Answer: −1.168

Question: What about the electric pain score (RM day 7) of the same compound?
Answer: 0

Question: What about the freezing pain score (RM day 7) of the same compound?
Answer: 0

Question: What about the numbness score (RM day 7) of the same compound?
Answer: 0

Question: And the “score for increased pain due to touch” value (RM day 7)?
Answer: 0

Question: And the “score for increased pain due to weather changes” value (RM day 7)?
Answer: 0

Question: And the squeezing pain score (RM day 7)?
Answer: 0

Question: What about the “PERCENTAGE PAIN RELIEF LAST 24 HOURS” value (RM day 7) of the same compound?
Answer: 75%

Question: What about the “score for overly sensitive to touch” value (RM day 7) of the same compound?
Answer: 0

Question: And the tingling pain score (RM day 7)?
Answer: 0

Question: What about the burning pain score (RM day 7) of the same compound?
Answer: 0

Question: And the overwhelming pain score (RM day 7)?
Answer: 20

Question: And the “for shooting pain score” value (RM day 7)?
Answer: 0

Question: And the unpleasant pain score (RM day 7)?
Answer: 50

Question: What about the “SCORE RELATIONSHIPS” value (RM day 7) of the same compound?
Answer: 3

Question: And the “SCORE MOOD” value (RM day 7)?
Answer: 6

Question: And the “SCORE ENJOYMENT” value (RM day 7)?
Answer: 6

Question: And the “SCORE SLEEP” value (RM day 7)?
Answer: 6

Question: And the “SCORE WALKING” value (RM day 7)?
Answer: 6

Question: What about the “SCORE GENERAL ACTIVITY” value (RM day 7) of the same compound?
Answer: 5

Question: And the “SCORE TOTAL ACTIVITY” value (RM day 7)?
Answer: 5

Question: And the “SCORE CONSTIPATION” value (RM day 7)?
Answer: 2

Question: What about the “SCORE INDIGESTION” value (RM day 7) of the same compound?
Answer: 1

Question: What about the “SCORE POOR CONCENTRATION” value (RM day 7) of the same compound?
Answer: 2

Question: And the “SCORE DROWSINESS” value (RM day 7)?
Answer: 1

Question: And the “SCORE NAUSEA” value (RM day 7)?
Answer: 2

Question: And the “SCORE POOR APPETITE” value (RM day 7)?
Answer: 3

Question: What about the “SCORE UN[…] GAIT” value (RM day 7) of the same compound?
Answer: 4

Question: What about the “LEAST PAIN LAST 24 HRS” value (RM day 7) of the same compound?
Answer: 0

Question: And the “PAIN SCORE RIGHT NOW” value (RM day 7)?
Answer: 5

Question: What about the “AVERAGE PAIN LAST 24 HOURS” value (RM day 7) of the same compound?
Answer: 3

Question: What about the “WORST PAIN SCORE LAST 24 HOURS” value (RM day 7) of the same compound?
Answer: 5

Question: And the “WHO PERFORMANCE STATUS” value (RM day 8)?
Answer: 3

Question: What about the electric pain score (RM day 8) of the same compound?
Answer: 0

Question: What about the freezing pain score (RM day 8) of the same compound?
Answer: 0

Question: What about the numbness score (RM day 8) of the same compound?
Answer: 0

Question: And the “score for increased pain due to touch” value (RM day 8)?
Answer: 0

Question: And the “score for increased pain due to weather changes” value (RM day 8)?
Answer: 0

Question: And the squeezing pain score (RM day 8)?
Answer: 0

Question: And the “PERCENTAGE PAIN RELIEF LAST 24 HOURS” value (RM day 8)?
Answer: 75* %

Question: And the “score for overly sensitive to touch” value (RM day 8)?
Answer: 0*

Question: What about the tingling pain score (RM day 8) of the same compound?
Answer: 0*

Question: And the burning pain score (RM day 8)?
Answer: 0*

Question: And the overwhelming pain score (RM day 8)?
Answer: 20*

Question: And the “for shooting pain score” value (RM day 8)?
Answer: 0*

Question: What about the unpleasant pain score (RM day 8) of the same compound?
Answer: 45*

Question: And the “SCORE RELATIONSHIPS” value (RM day 8)?
Answer: 3

Question: What about the “SCORE MOOD” value (RM day 8) of the same compound?
Answer: 4*

Question: And the “SCORE ENJOYMENT” value (RM day 8)?
Answer: 4*

Question: What about the “SCORE SLEEP” value (RM day 8) of the same compound?
Answer: 1*

Question: What about the “SCORE WALKING” value (RM day 8) of the same compound?
Answer: 6*

Question: And the “SCORE GENERAL ACTIVITY” value (RM day 8)?
Answer: 5*

Question: What about the “SCORE TOTAL ACTIVITY” value (RM day 8) of the same compound?
Answer: 5*

Question: What about the “SCORE CONSTIPATION” value (RM day 8) of the same compound?
Answer: 3

Question: What about the “SCORE INDIGESTION” value (RM day 8) of the same compound?
Answer: 1

Question: And the “SCORE POOR CONCENTRATION” value (RM day 8)?
Answer: 2

Question: What about the “SCORE DROWSINESS” value (RM day 8) of the same compound?
Answer: 1*

Question: And the “SCORE NAUSEA” value (RM day 8)?
Answer: 3

Question: And the “SCORE UN[…] GAIT” value (RM day 8)?
Answer: 4

Question: And the “LEAST PAIN LAST 24 HRS” value (RM day 8)?
Answer: 1

Question: What about the “PAIN SCORE RIGHT NOW” value (RM day 8) of the same compound?
Answer: 7
